The values that follow come from paper PMC8131842, “Therapeutic Potential of Vasoactive Intestinal Peptide and its Derivative Stearyl-Norleucine-VIP in Inflammation-Induced Osteolysis” (Frontiers in Pharmacology, 2021).

The subject of one data set is Guinea pigs. As to the kind of experiment: Study 003 skin sensitization: adjuvant and patch test. The class given is in vivo, guinea pig. Particulars: daily applications for 3 days, SNV 7 mg/animal (1000X). The method, then:
Toxicology. We performed toxicology studies for SNV that consisted of acute subcutaneous, intravenous and oral toxicity in rats, acute dermal toxicity in rabbits, skin sensitization using adjuvant and patch test in guinea pigs, and single and repeated (for 13 weeks) dose toxicity studies in rats. The latter was a 90-days repeated dose toxicity study, consisting of SNV once a day at three different doses to the penis and vagina of male and female rats, respectively. The compound was tested for the treatment of erectile dysfunction. The active dose (7 µg SNV) was chosen as the lowest dose for the study. The highest dosage group in the repeated dose toxicity study received 3,500 µg ([Gozes et al., 1994]). For study 001 (parts 1 through 3), the 1× dose consisted of 0.5 mg SNV dissolved in 7.1 ml vehicle (3.55 ml 10% Sefsol [glycerin monocaprylate] + 3.55 ml isopropanol) and 100µl/animal were administered; the 1000X dose consisted of 91 mg SNV dissolved in 1.3 ml vehicle (0.65 ml 10% Sefsol +0.65 ml isopropanol) and 100µl/animal were administered. For studies 002 through 004, the indicated doses of SNV (Table 1) were dissolved in 0.25 ml 10% Sefsol +0.25 ml 40% isopropanol (vehicle). The methodology for each of the toxicology studies is detailed in Table 1.

Data set [1] has as its system Primary murine macrophages/preosteoclasts. As to the kind of experiment: MTT viability assay. The class given is cell-based, mouse. Conditions: 10^-6 M, 20 ng/ml M-CSF, 1, 3 and 5 days of treatment, N=5. The method, then: MTT assay. For proliferation assay, macrophages were plated (4000 cells/well) into 96-well plate with standard medium supplemented with 20 ng of M-CSF. Cells were treated as indicated with either TiP, SNV, VIP (10^−6 M) or vehicle at first day of incubation. Cells viability was determined using dimethylthiazol-diphenyl-tetrazolium-bromide (MTT) after 1, 3 or 5 days. MTT was added to a final concentration of 5 mg/ml and incubated for 4 h at 37°C. After complete solubilization of the die in DMSO, plates were read at 570 nm in a colorimetric plate reader.
FIGURE 4 VIP and SNV alleviate the osteoclastogenic effect of TiP-induced inflammation. (A) Primary BMDM were exposed to TiP and RNA was collected after 24 h. mRNA expression are presented as Mean±SD fold change versus Control. * p<0.05 vs. Control. (B-D) Primary murine preosteoclasts were cultured in 20 ng/ml M-CSF and 50 ng/ml RANKL for 48 h. Conditioned medium from macrophages (Control) and macrophages exposed to Ti particles (Ti, as in A) was then added together with 10^-6M of VIP or SNV (or saline) for 48 h before TRAP staining. Data are Mean±SD for osteoclast % surface area (B) and number per well (C). (D) Representative images all acquired at a 4x original magnification. The scale bar for all images is in the upper left panel. n=8, #p<0.05 vs. Control; *p<0.05 vs. Ti, ANOVA. […]
In general terms: Formazan colour is commonly taken as a measure of viable cells.

For data set [2] the following is noted: matrix not given, ref Gozes et al., 1994, 1996; cited from earlier work. The source says:
VIP derivatives and conjugates were designed to include a lipophilic moiety or a shortened VIP chain ([Gozes and Fridkin, 1992]; [Gozes et al., 1994]; [Gozes et al., 1995]; [Gozes et al., 1996]; [Gozes et al., 1999]). Stearyl-norleucine-VIP (Stearyl-Nle^17VIP, SNV) is a lipophilic compound consisting of a VIP molecule with an N-terminal attachment of stearic acid to increase cell and tissue bioavailability and an exchange of the oxidation-vulnerable methionine at position 17 with the stable norleucine.

Each structure is given as a SMILES string.

As for `O=[N+]([O-])c1ccc(Cl)c([N+](=O)[O-])c1` [1%-chloro-2,4-dinitrobenzene, reference compound], in the data set with Guinea pigs (adjuvant and patch test), the Mortality entry is given as “None”. The Skin reactions result with Guinea pigs (intradermal Freund's complete adjuvant and patch application, 3 males + 3 females per group) is “severe erythema, edema and necrosis”.

Consider `CC[C@H](C)[C@H](NC(=O)[C@H](CO)NC(=O)[C@H](CC(N)=O)NC(=O)[C@H](CC(C)C)NC(=O)[C@H](Cc1ccc(O)cc1)NC(=O)[C@H](CCCCN)NC(=O)[C@H](CCCCN)NC(=O)[C@@H](NC(=O)[C@H](C)NC(=O)[C@H](CCSC)NC(=O)[C@H](CCC(N)=O)NC(=O)[C@H](CCCCN)NC(=O)[C@H](CCCN=C(N)N)NC(=O)[C@H](CC(C)C)NC(=O)[C@H](CCCN=C(N)N)NC(=O)[C@@H](NC(=O)[C@H](Cc1ccc(O)cc1)NC(=O)[C@H](CC(N)=O)NC(=O)[C@H](CC(=O)O)NC(=O)[C@@H](NC(=O)[C@H](Cc1ccccc1)NC(=O)[C@@H](NC(=O)[C@H](C)NC(=O)[C@H](CC(=O)O)NC(=O)[C@H](CO)NC(=O)[C@@H](N)Cc1c[nH]cn1)C(C)C)[C@@H](C)O)[C@@H](C)O)C(C)C)C(=O)N[C@@H](CC(C)C)C(=O)N[C@@H](CC(N)=O)C(N)=O` [VIP, Vasoactive intestinal peptide], for which the “Viability of the cells (MTT, optical density)” value in data set [1] is “neither VIP nor SNV affected the viability”. Further, the Half-life in data set [2] is reported as approximately 30 s.
